In ChEMBL document CHEMBL3045227, “Development of 4-aminoquinoline-1,3,5-triazine conjugates as potent antibacterial agent through facile synthetic route” (2013) one finds MIC data, which are given here for ten molecules.

Common to all, as to format: functional
One assay deals with Pseudomonas aeruginosa. Nature of the assay: Antibacterial activity against Pseudomonas aeruginosa NCIM 2036 assessed as growth inhibition after 24 hr by NCCLS broth dilution method. As to conditions: NCIM 2036, 24 h. Background: Dilution methods test growth across graded concentrations, often in twofold steps.
The next assay relates to Escherichia coli. Nature of the assay: Antibacterial activity against Escherichia coli NCIM 2065 assessed as growth inhibition after 24 hr by NCCLS broth dilution method. The settings on record: NCIM 2065, 24 h.
The next assay relates to Proteus mirabilis. Kind of assay: Antibacterial activity against Proteus mirabilis NCIM 2241 assessed as growth inhibition after 24 hr by NCCLS broth dilution method. As to conditions: NCIM 2241, 24 h.
The next assay relates to Staphylococcus aureus. Nature of the assay: Antibacterial activity against Staphylococcus aureus NCIM 2079 assessed as growth inhibition after 24 hr by NCCLS broth dilution method. The settings on record: NCIM 2079, 24 h.
The test system of another assay is Proteus vulgaris. Kind of assay: Antibacterial activity against Proteus vulgaris NCIM 2027 assessed as growth inhibition after 24 hr by NCCLS broth dilution method. As to conditions: NCIM 2027, 24 h.
A further assay deals with Bacillus subtilis. Nature of the assay: Antibacterial activity against Bacillus subtilis NCIM 2063 assessed as growth inhibition after 24 hr by NCCLS broth dilution method. As to conditions: NCIM 2063, 24 h.
Another assay has as its system Bacillus cereus. Nature of the assay: Antibacterial activity against Bacillus cereus NCIM 2156 assessed as growth inhibition after 24 hr by NCCLS broth dilution method. The settings on record: NCIM 2156, 24 h.

Converted amounts (≈) assume the structure as drawn.

One may read the MIC as the lowest concentration that inhibits growth of the organism. For the molecule `Cc1ccc(Nc2nc(Nc3ccc([N+](=O)[O-])cc3)nc(N3CCN(C(=S)Nc4ccnc5cc(Cl)ccc45)CC3)n2)cc1`, the MIC in the assay on Pseudomonas aeruginosa is 6.25 µg/mL (≈ 9.97 µM); in the assay on Escherichia coli, 12.5 µg/mL (≈ 19.9 µM); with Proteus mirabilis it was 3.12 µg/mL (≈ 4.98 µM); in the assay on Staphylococcus aureus it was 12.5 µg/mL (≈ 19.9 µM); with Proteus vulgaris it was 12.5 µg/mL (≈ 19.9 µM); in the assay on Bacillus subtilis, 6.25 µg/mL (≈ 9.97 µM). The MIC in the assay on Bacillus cereus was determined as 3.12 µg/mL (≈ 4.98 µM).
With `O=[N+]([O-])c1ccc(Nc2nc(N3CCOCC3)nc(N3CCN(C(=S)Nc4ccnc5cc(Cl)ccc45)CC3)n2)cc1`, the MIC in the assay with Pseudomonas aeruginosa stood at 12.5 µg/mL (≈ 20.6 µM); with Escherichia coli it was 6.25 µg/mL (≈ 10.3 µM); with Proteus mirabilis it was 12.5 µg/mL (≈ 20.6 µM); in the assay on Staphylococcus aureus, 3.12 µg/mL (≈ 5.15 µM); in the assay with Proteus vulgaris, 3.12 µg/mL (≈ 5.15 µM); with Bacillus subtilis, 6.25 µg/mL (≈ 10.3 µM). Besides, the MIC with Bacillus cereus stood at 3.12 µg/mL (≈ 5.15 µM).
With `NNc1nc(Nc2ccc([N+](=O)[O-])cc2)nc(N2CCN(C(=S)Nc3ccnc4cc(Cl)ccc34)CC2)n1.O`, the MIC in the assay with Pseudomonas aeruginosa was 12.5 µg/mL; in the assay with Escherichia coli, 25 µg/mL; in the assay on Proteus mirabilis, 6.25 µg/mL; in the assay on Staphylococcus aureus, 25 µg/mL; in the assay with Proteus vulgaris it was 12.5 µg/mL; in the assay on Bacillus subtilis, 6.25 µg/mL. For the same molecule, in the assay on Bacillus cereus, the MIC was 6.25 µg/mL.
As for `NC(=S)NNc1nc(Nc2ccc([N+](=O)[O-])cc2)nc(N2CCN(C(=S)Nc3ccnc4cc(Cl)ccc34)CC2)n1`, the MIC was determined as 6.25 µg/mL (≈ 10.2 µM) with Pseudomonas aeruginosa; 6.25 µg/mL (≈ 10.2 µM) with Escherichia coli; 12.5 µg/mL (≈ 20.5 µM) in the assay on Proteus mirabilis; 25 µg/mL (≈ 40.9 µM) in the assay on Staphylococcus aureus; 12.5 µg/mL (≈ 20.5 µM) in the assay with Proteus vulgaris; 6.25 µg/mL (≈ 10.2 µM) in the assay with Bacillus subtilis. Also, in the assay on Bacillus cereus, the MIC was determined as 3.12 µg/mL (≈ 5.11 µM).
On to `Cc1ccccc1Nc1nc(Nc2ccc([N+](=O)[O-])cc2)nc(N2CCN(C(=S)Nc3ccnc4cc(Cl)ccc34)CC2)n1`, for which the MIC with Pseudomonas aeruginosa worked out at 6.25 µg/mL (≈ 9.97 µM); in the assay with Escherichia coli, 6.25 µg/mL (≈ 9.97 µM); in the assay on Proteus mirabilis, 12.5 µg/mL (≈ 19.9 µM); in the assay on Staphylococcus aureus it was 25 µg/mL (≈ 39.9 µM); with Proteus vulgaris it was 25 µg/mL (≈ 39.9 µM); in the assay on Bacillus subtilis, 12.5 µg/mL (≈ 19.9 µM). In addition, the MIC in the assay with Bacillus cereus is 12.5 µg/mL (≈ 19.9 µM).
On to `O=[N+]([O-])c1ccc(Nc2nc(Nc3ccccc3)nc(N3CCN(C(=S)Nc4ccnc5cc(Cl)ccc45)CC3)n2)cc1`, for which the MIC with Pseudomonas aeruginosa turned out to be 6.25 µg/mL (≈ 10.2 µM); in the assay with Escherichia coli, 12.5 µg/mL (≈ 20.4 µM); in the assay on Proteus mirabilis, 6.25 µg/mL (≈ 10.2 µM); in the assay on Staphylococcus aureus it was 12.5 µg/mL (≈ 20.4 µM); with Proteus vulgaris, 12.5 µg/mL (≈ 20.4 µM); with Bacillus subtilis, 12.5 µg/mL (≈ 20.4 µM). For the same molecule, the MIC in the assay with Bacillus cereus was found to be 3.12 µg/mL (≈ 5.1 µM).
In the case of `NC(=O)NNc1nc(Nc2ccc([N+](=O)[O-])cc2)nc(N2CCN(C(=S)Nc3ccnc4cc(Cl)ccc34)CC2)n1`, the MIC in the assay on Pseudomonas aeruginosa is 12.5 µg/mL (≈ 21 µM); with Escherichia coli, 12.5 µg/mL (≈ 21 µM); in the assay on Proteus mirabilis, 6.25 µg/mL (≈ 10.5 µM); in the assay with Staphylococcus aureus it was 12.5 µg/mL (≈ 21 µM); in the assay on Proteus vulgaris, 6.25 µg/mL (≈ 10.5 µM); in the assay with Bacillus subtilis, 3.12 µg/mL (≈ 5.25 µM). In addition, in the assay on Bacillus cereus, the MIC is 6.25 µg/mL (≈ 10.5 µM).
With `NCCCNc1nc(Nc2ccc([N+](=O)[O-])cc2)nc(N2CCN(C(=S)Nc3ccnc4cc(Cl)ccc34)CC2)n1`, the MIC was found to be 12.5 µg/mL (≈ 21 µM) with Pseudomonas aeruginosa; 12.5 µg/mL (≈ 21 µM) with Escherichia coli; 12.5 µg/mL (≈ 21 µM) with Proteus mirabilis; 25 µg/mL (≈ 42.1 µM) in the assay with Staphylococcus aureus; 25 µg/mL (≈ 42.1 µM) in the assay on Proteus vulgaris; 25 µg/mL (≈ 42.1 µM) in the assay with Bacillus subtilis. In addition, the MIC in the assay on Bacillus cereus was determined as 12.5 µg/mL (≈ 21 µM).
For `O=[N+]([O-])c1ccc(Nc2nc(Nc3ccc(O)cc3)nc(N3CCN(C(=S)Nc4ccnc5cc(Cl)ccc45)CC3)n2)cc1`, the MIC in the assay on Pseudomonas aeruginosa was 25 µg/mL (≈ 39.7 µM); in the assay on Escherichia coli, 50 µg/mL (≈ 79.5 µM); with Proteus mirabilis it was 50 µg/mL (≈ 79.5 µM); with Staphylococcus aureus it was 100 µg/mL (≈ 159 µM); in the assay with Proteus vulgaris it was 50 µg/mL (≈ 79.5 µM); in the assay on Bacillus subtilis, 25 µg/mL (≈ 39.7 µM). Besides, the MIC with Bacillus cereus is 25 µg/mL (≈ 39.7 µM).
Take `CC1COc2c(N3CCN(C)CC3)c(F)cc3c(=O)c(C(=O)O)cn1c23` (stereo not given) [OFLOXACIN]: the MIC in the assay on Pseudomonas aeruginosa amounted to 6.25 µg/mL (≈ 17.3 µM); in the assay with Escherichia coli, 3.12 µg/mL (≈ 8.65 µM); with Proteus mirabilis, 3.12 µg/mL (≈ 8.65 µM); in the assay on Staphylococcus aureus it was 6.25 µg/mL (≈ 17.3 µM); in the assay on Proteus vulgaris it was 3.12 µg/mL (≈ 8.65 µM); in the assay with Bacillus subtilis it was 3.12 µg/mL (≈ 8.65 µM). Further, the MIC in the assay on Bacillus cereus was 6.25 µg/mL (≈ 17.3 µM).
